PubChem BioAssay AID1189 (EPA DSSTox, 2008)
Activity calls are given as the source filed them.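 The calls were made as follows: active = a tumor-causing dose value with its tumor site reported for any sex and species group of a rodent or other animal cancer study; inconclusive = only studies judged inadequate by the national testing program; inactive = tested in at least one study, none positive.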

Assay: DSSTox (CPDBAS) Carcinogenic Potency Database Summary SingleCellCall Results
Settings: animal chronic carcinogenicity bioassays, CPDB summary call
Summary of the method: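 Categorical carcinogenicity call compiled from published chronic rodent and other animal cancer bioassays; based on the most positive result across experiments for each sex-species, assigned on minimal evidence for or against activity.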

SMILES	outcome
C[C@H](CCc1ccccc1)NC[C@H](O)c1ccc(O)c(C(N)=O)c1	inactive
c1ccc2sc(SNC3CCCCC3)nc2c1	inactive
CC1CO1 (stereo not drawn)	active
CNCCC(Oc1ccc(C(F)(F)F)cc1)c1ccccc1 (stereo not drawn)	inactive; active
CCCCOCCO	active
COc1cccc2c1C(=O)c1c(O)c3c(c(O)c1C2=O)C[C@@](O)(C(=O)CO)C[C@@H]3O[C@H]1C[C@H](N)[C@H](O)[C@H](C)O1	inactive; active
CN(CCO)N=O	active
Clc1ccccc1Cl	inactive
O=C(O)c1cc(=O)[nH]c(=O)[nH]1	inactive
COc1cc2c(c3oc(=O)c4c(c13)CCC4=O)C1C=COC1O2 (stereo not drawn)	active
COC(=O)C1=CCCN(C)C1	active
BrC(Br)Br	active; inactive
Cc1ncc[nH]1	active
NN	active
Cc1cccc(C)c1NC(=O)CN1CCCC1=O	inactive
C=C1C(C)(C)[C@@]2(Cl)C(Cl)[C@]1(Cl)C(Cl)(Cl)C2(Cl)Cl (stereo partly drawn)	active
CN(C)C(=S)[S][Pb][S]C(=S)N(C)C	inactive
CCNC(=O)N(CCO)N=O	active
O=NN(CC(F)(F)F)CC(F)(F)F	inactive
O=[N+]([O-])c1ccc(O)c([N+](=O)[O-])c1	inactive
ClC(Br)Br	active
CC(O)CNCC(C)O (stereo not drawn)	inactive

SMILES	outcome
CN(N)C=O	active
CC(O)CN(N=O)C(=O)NCCCl (stereo not drawn)	active
COc1cc(NC(=O)C(N=Nc2ccc(-c3ccc(N=NC(C(C)=O)C(=O)Nc4cc(OC)c(Cl)cc4OC)c(Cl)c3)cc2Cl)C(C)=O)c(OC)cc1Cl (stereo not drawn)	inactive
Clc1cnc(Oc2ccc(Oc3ncc(Cl)cc3Cl)cc2)c(Cl)c1	inactive
ClCc1ccccn1	inactive
O=S(=O)(c1ccc(Cl)cc1)c1cc(Cl)c(Cl)cc1Cl	inactive
C1CC2OC2CC1C1CO1 (stereo not drawn)	inactive
CC1(C)O[C@@H]2C[C@H]3[C@@H]4CCC5=CC(=O)C=C[C@]5(C)[C@@]4(F)[C@@H](O)C[C@]3(C)[C@]2(C(=O)CO)O1	active
CC(=O)Nc1ccc(C(=O)CCl)cc1	inactive
Cc1cc(O)c(C(C)(C)C)cc1Sc1cc(C(C)(C)C)c(O)cc1C	inactive
Nc1nc(/C=C/c2ccc([N+](=O)[O-])o2)no1	active
CN(C)CCC(c1ccc(Cl)cc1)c1ccccn1 (stereo not drawn)	inactive
O=C(O)Cc1c[nH]c2ccccc12	inactive
CC(O)c1ccccc1 (stereo not drawn)	active; inactive
CC(=O)OC[C@]12C[C@H](OC(=O)CC(C)C)C(C)=C[C@H]1O[C@@H]1[C@H](O)[C@@H](OC(C)=O)[C@@]2(C)C12CO2 (stereo partly drawn)	active; inactive
C/C1=C\C=C(\C(C)C)[C@@H](O)C/C(C)=C/CC/C(C)=C/CC1	inactive
[N]=O	inactive
Nc1cc([N+](=O)[O-])ccc1C(=O)O	inactive
CN(N=O)c1ccccn1	active
O=C(O)CC[N+](=O)[O-]	inactive; active
C=CC=C	active; inactive
O=NN1CN2CN(C1)CN(N=O)C2	inactive

SMILES	outcome
CC(O)CN(CC(C)O)CC(C)O (stereo not drawn)	inactive; active
Nc1ccc(Cl)cc1N	active
CN=C(N)N	inactive; active
CC1(C)S[C@@H]2[C@H](NC(=O)COc3ccccc3)C(=O)N2[C@H]1C(=O)O	inactive
CCOP(=O)=O.CCOP(=O)=O.CCOP(=O)=O.[Al+3]	active; inactive
O=C1O[C@H]([C@H](O)CO)C(O)=C1O	inactive; active
N#CS	inactive
CCn1nc(C)c2c1C(c1ccccc1)=NCC(=O)N2	active
CC(=O)C1C(=O)C=C(C)OC1=O (stereo not drawn)	inactive; active
CCCCCC	active
C/C=C1/C[C@@H](C)[C@@](C)(O)C(=O)OC/C2=C/CN(C)CC[C@@H](OC1=O)C2=O	active
Cc1ccc(S(=O)(=O)Oc2ccc(N=Nc3ccc(-c4ccc(N=Nc5c(O)ccc6cc(S(=O)(=O)O)cc(S(=O)(=O)O)c56)c(C)c4)cc3C)cc2)cc1	active
CCOc1ccc(NC(C)=O)cc1	active; inactive
COc1ccc(C)cc1N	active
C1C2OC2C2C1C1CC2C2OC12 (stereo not drawn)	inactive
CCC1NC(=O)C2C(Cl)C(Cl)CN2C(=O)C(CO)NC(=O)CC(c2ccccc2)NC(=O)C(CO)NC1=O (stereo not drawn)	active; inactive
CN(C)CCN(C)N=O	active; inactive
c1ccc2sc(SN3CCOCC3)nc2c1	inactive
O=P1(N(CCCl)CCCl)NCCCO1 (stereo not drawn)	active
CN(C)c1ccccc1	active
ClCOCC(COCCl)OCCl	active
CC1(C)COC1=O	active

SMILES	outcome
Cc1ccc2c(c1)C(N1CCN(C)CC1)=Nc1ccccc1S2	inactive
O=c1ccc(=O)[nH][nH]1	inactive; active
CO[C@H]1/C=C/O[C@@]2(C)Oc3c(C)c(O)c4c(O)c(c(/C=N/N5CCN(C)CC5)c(O)c4c3C2=O)NC(=O)/C(C)=C\C=C\[C@H](C)[C@H](O)[C@@H](C)[C@@H](O)[C@@H](C)[C@H](OC(C)=O)[C@@H]1C	active; inactive
COc1cccc2c1cc([N+](=O)[O-])c1c(C(=O)O)cc3c(c12)OCO3	active; inactive
Cc1c(N(C)C)c(=O)n(-c2ccccc2)n1C	inactive
CC1CC(C)(C)CC(OOC(C)(C)C)(OOC(C)(C)C)C1 (stereo not drawn)	inactive; active
c1ccc(Nc2ccc(Nc3ccccc3)cc2)cc1	inactive
Nc1ccc(N)c(Cl)c1	inactive
O=[N+]([O-])c1ccc(Cl)c([N+](=O)[O-])c1	inactive
COc1ccc([C@@H]2CC(=O)c3c(O)cc(O[C@@H]4O[C@H](CO[C@@H]5O[C@@H](C)[C@H](O)[C@@H](O)[C@H]5O)[C@@H](O)[C@H](O)[C@H]4O)cc3O2)cc1OC	inactive
C[C@H](CCC(=O)O)[C@H]1CC[C@H]2[C@@H]3[C@H](O)C[C@@H]4C[C@H](O)CC[C@]4(C)[C@H]3CC[C@]12C	inactive
S=C(SN1CCOCC1)N1CCOCC1	active
CCCCCCC(=O)/C=C/CCCCCCCCC(=O)OC	inactive; active
CCC1CO1 (stereo not drawn)	active; inactive
O=S(=O)(O)c1c(N=Nc2c(O)ccc3ccccc23)ccc2ccccc12	inactive; active
CC=O	active; inactive
Oc1ccc(Cl)cc1Cc1ccccc1	active
NNCCc1ccccc1	active
COc1ccc(OC)c(/C=C/c2ccc(N)cc2)c1	active
O=C1OC(c2ccc(O)cc2)(c2ccc(O)cc2)c2ccccc21	active
O=NN(CCCl)C(=O)N[C@@H]1[C@@H](O)[C@H](O)[C@@H](CO)O[C@@H]1O	active
C=C(C)[C@H]1Cc2c(ccc3c2O[C@@H]2COc4cc(OC)c(OC)cc4[C@@H]2C3=O)O1	inactive; active
